Test results published in paper PMC3849007 (Journal of Experimental & Clinical Cancer Research : CR, 2013).

Legend:
[1] = biological target: T1, M2 muscarinic receptor (Homo sapiens, UniProt P08172); assay: Cerep ExpresSProfile receptor screen, M2; settings: data not shown, read-out: % inhibition of ligand binding, M2 muscarinic receptor
T1 construct: purchased Cerep (ExpresSProfile screen, contract service)
Method: (§1) To investigate the molecular bases of cardio toxicity, the agent was tested for its potential to interact with a panel of 54 pharmacological receptors, the majority being human recombinant receptors (Cerep ExpresSProfile screen) (http://www.cerep.fr).

[2] = set-up: method as in doi:10.1016/S0040-4020(01)90102-4; settings: cited from earlier work
[3] = biological target: T2, M3 muscarinic receptor (Homo sapiens, UniProt P20309); assay: Cerep ExpresSProfile receptor screen, M3; settings: data not shown, read-out: % inhibition of ligand binding, M3 muscarinic receptor
T2 construct: purchased Cerep (ExpresSProfile screen, contract service)
Method: as §1

T1 sequence (P08172 whole entry): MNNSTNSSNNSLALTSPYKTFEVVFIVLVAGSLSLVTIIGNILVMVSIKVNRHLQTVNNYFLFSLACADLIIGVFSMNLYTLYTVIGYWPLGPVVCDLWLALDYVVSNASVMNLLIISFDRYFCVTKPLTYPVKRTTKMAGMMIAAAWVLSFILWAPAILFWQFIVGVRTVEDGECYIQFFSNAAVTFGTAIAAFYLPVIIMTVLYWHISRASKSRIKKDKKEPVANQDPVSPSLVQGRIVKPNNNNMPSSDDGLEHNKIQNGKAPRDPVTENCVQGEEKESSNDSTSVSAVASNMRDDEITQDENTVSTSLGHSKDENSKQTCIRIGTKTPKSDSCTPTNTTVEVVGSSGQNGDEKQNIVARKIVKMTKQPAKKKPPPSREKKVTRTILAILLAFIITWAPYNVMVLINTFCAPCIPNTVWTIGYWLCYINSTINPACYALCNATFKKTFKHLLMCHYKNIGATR
T2 sequence (P20309 whole entry): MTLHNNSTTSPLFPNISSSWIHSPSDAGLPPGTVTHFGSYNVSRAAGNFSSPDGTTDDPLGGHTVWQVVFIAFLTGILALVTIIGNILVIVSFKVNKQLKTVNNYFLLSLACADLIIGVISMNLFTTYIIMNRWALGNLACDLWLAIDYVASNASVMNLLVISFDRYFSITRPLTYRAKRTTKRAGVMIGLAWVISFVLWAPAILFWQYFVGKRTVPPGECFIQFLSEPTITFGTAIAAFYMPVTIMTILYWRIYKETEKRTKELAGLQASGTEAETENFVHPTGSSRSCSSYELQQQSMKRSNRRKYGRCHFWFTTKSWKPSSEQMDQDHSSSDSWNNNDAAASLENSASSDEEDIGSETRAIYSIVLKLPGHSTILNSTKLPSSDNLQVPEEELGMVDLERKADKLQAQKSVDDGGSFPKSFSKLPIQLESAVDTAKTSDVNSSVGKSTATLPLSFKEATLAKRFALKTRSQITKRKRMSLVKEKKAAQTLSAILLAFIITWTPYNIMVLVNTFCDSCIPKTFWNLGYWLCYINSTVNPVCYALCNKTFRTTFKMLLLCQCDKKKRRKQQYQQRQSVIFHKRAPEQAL

## Cc1cc2c3c([n+](C)c4ccc(F)cc4c3c1)-c1cc(F)ccc1N2C [Compound 1, 3,11-Difluoro-6,8,13-trimethyl-8H-quino[4,3,2-kl]acridinium metho-sulfate]
[1]
  inhibition at 1 µM: > 95%
[2]
  solubility: high solubility
[3]
  inhibition at 1 µM: > 95%
